According to article PMC6511062, “Preclinical candidate for the treatment of visceral leishmaniasis that acts through proteasome inhibition” (Proceedings of the National Academy of Sciences of the …, 2019):

Legend:
[1] = test system: L. donovani promastigotes; assay: Morphological analysis by transmission EM; type: cell-based, Leishmania donovani; conditions: two times EC50, 6 h
Procedure: Profound morphological changes were evident in parasites treated with compounds from this series. To gain additional insight into these compound-induced changes, L. donovani promastigotes were treated with 7 at a concentration equivalent to two times the established EC50 value for 6 h before analysis by transmission EM. […] In addition, there was a significant accumulation of intracellular vesicles within treated parasites (SI Appendix, Fig. S8). Based on our target identification studies, we reasoned that an inability to recycle key proteins via the proteasome left these parasites overcome by their own waste protein products. […]
95°C for 3 min; 40 cycles of 95°C for 20 s; then 60 °C for 20 s. […] Relative quantification in the tetracycline-induced cell lines were normalized to the un-induced cell line using the […]
Cultures of bloodstream T. brucei and L. donovani promastigotes at starting cell densities of 5 x 105 were incubated with concentrations of compound 7 equivalent to 5x their respective EC50 values. […] After washing, cell densities were adjusted to 5 × 10^5 cells mL, re-suspended in 500 µL of PBS containing 50 µg/mL propidium iodide, 50 µg/mL RNase and 0.1% Triton X-100, incubated at room temperature for 20 min in the dark and analysed using FACSort analytical flow cytometer using Cellquest software (BD Biosciences). j. […]

[2] = test system: TA98; assay: Ames test, strain TA98
Procedure: oxidative metabolism system (S9-mix). The maximum concentration tested and […]
Compound 7a was tested in a bacterial mutation screening assay (Ames test) with Salmonella typhimurium TA1535, TA1537, TA98, TA100 and Escherichia coli WP2uvrA(pKM101) in the presence and absence of an exogenous mammalian […]
The bacterial mutation screening assay was a plate incorporation test carried out as previously described15 and according to current methodology. […]

[3] = Pharmacokinetics in male Sprague Dawley rats; type: in vivo; conditions: rat
Procedure: Male Sprague Dawley rats (n=3) were dosed either intravenously at a target dose of 3 mg/kg or orally at a target dose of 10, 30, 100 and 300 mg/kg. Following discrete intravenous tail vein dosing from a solution of 5% DMSO/20% kleptose in saline, serial blood samples (~10 µl) were taken via lateral tail vein at 0.01, 0.05, 0.08, 0.25, 0.5, 1, 2, 4, 6, 8 and 24 h post dose and 1/9 diluted with miliQ water, frozen on dry ice, then stored at approximately –20 °C or below until analysis.
Following discrete oral gavage dosing from a suspension of 1% methyl cellulose at target doses of 10, 30, 100 and 300 mg/kg, respectively, serial blood samples (10 µl) were taken via lateral tail vein at 0.08, 0.25, 0.5, 0.75, 1, 2, 4, 6, 8 and 24 h post dose and 1/9 diluted with miliQ water, frozen on dry ice, then stored at approximately –20°C […]
Samples were analyzed for parent compound using a method based on protein precipitation followed by UPLC-MS/MS.
Pharmacokinetic parameters, namely clearance (CL), volume of distribution at steady state (Vss) and bioavailability (F%), were estimated using Phoenix, WinNonLin 6.3.
Data analysis and calculation of pharmacokinetic parameters was performed using Phoenix, WinNonLin Version 6.3.
Following the intravenous administration, the whole blood clearance was calculated by determining the dose administered to each animal and dividing by the AUC0-∞ . The estimate of the volume of distribution at steady state (VSS) was calculated as MRT*CL, where MRT is the mean residence time, calculated by AUMC0-∞ /AUC0-∞.
For both intravenous and oral administration, the systemic exposures were determined by calculating the area under the blood concentration time curve (AUC) from the start of dosing to the last observed quantifiable concentration (AUC0-t) by using the linear up-log down trapezoidal rule. The slope of the terminal elimination phase was estimated by linear regression of the terminal data points (minimum 3 points) from a natural log concentration versus time plot of the data. The half-life (t1/2) of the terminal elimination phase was calculated as t1/2 = 0.693/λ. […]

[4] = male, Sprague Dawley, whole blood, 3 mg/kg iv bolus

SMILES | morphological changes (transmission EM) [1] | Mean revertants per plate ([2]; with S9-mix, dose level 50 per plate) | Mean revertants per plate ([2]; with S9-mix, dose level 150 per plate) | Mean revertants per plate ([2]; with S9-mix, dose level 500 per plate) | Mean revertants per plate ([2]; with S9-mix, dose level 1500 per plate) | Mean revertants per plate ([2]; with S9-mix, dose level 2500 per plate) | Mean revertants per plate ([2]; with S9-mix, dose level 5000 per plate) | Mean revertants per plate ([2]; without S9-mix, dose level 50 per plate) | Mean revertants per plate ([2]; without S9-mix, dose level 150 per plate) | Mean revertants per plate ([2]; without S9-mix, dose level 500 per plate) | Mean revertants per plate ([2]; without S9-mix, dose level 1500 per plate) | Mean revertants per plate ([2]; without S9-mix, dose level 2500 per plate) | Mean revertants per plate ([2]; without S9-mix, dose level 5000 per plate) | bioavailability ([3]; male, Sprague Dawley, whole blood, po, 10 mg/kg, SD male rat, 10 mg/kg po, read-out: F (oral bioavailability)) [%] | clearance [3, 4] [L/h/kg] | half-life [3, 4] [min] | Vd ([3]; male, Sprague Dawley, whole blood, 3 mg/kg iv bolus, read-out: Vss) [L/kg] | blood clearance [3] [mL/min per kilogram] | Cl (%LBF) ([3]; 3 mg/kg iv) [%]
O=C(Nc1ccc(F)c(-c2cn3nc(-c4ccccc4)cnc3n2)c1)N1CCCC1 [Compound 7] | swelling of promastigotes |  |  |  |  |  |  |  |  |  |  |  |  |  |  |  |  |  | 
O=C(Nc1ccc(F)c(-c2ccn3c(N4CCOCC4)cnc3n2)c1)N1CCCC1 [Compound 8] |  | 23.0 | 25.0 | 30.0 | 24.5 | 25.5 | 25.0 | 22.5 | 19.0 | 14.5 | 19.5 | 16.5 | 18.0 | 36 | 1.02 ± 0.312 | 42 ± 8.4 | 1 | 17 | 22
